The test system of assay [1] is prostatic urethral pressure increase induced by noradrenaline. The note with it: anaesthetised dogs, i.v.; data from Leonardi et al. 1997; cited from earlier work.
Assay [2] relates to diastolic blood pressure. The conditions noted are these: anaesthetised dogs, i.v.; data from Leonardi et al. 1997; cited from earlier work.
Assay [3] deals with T1, 5HT1A-serotoninergic receptor (Homo sapiens, UniProt P08908).
T1 sequence (P08908 1-422): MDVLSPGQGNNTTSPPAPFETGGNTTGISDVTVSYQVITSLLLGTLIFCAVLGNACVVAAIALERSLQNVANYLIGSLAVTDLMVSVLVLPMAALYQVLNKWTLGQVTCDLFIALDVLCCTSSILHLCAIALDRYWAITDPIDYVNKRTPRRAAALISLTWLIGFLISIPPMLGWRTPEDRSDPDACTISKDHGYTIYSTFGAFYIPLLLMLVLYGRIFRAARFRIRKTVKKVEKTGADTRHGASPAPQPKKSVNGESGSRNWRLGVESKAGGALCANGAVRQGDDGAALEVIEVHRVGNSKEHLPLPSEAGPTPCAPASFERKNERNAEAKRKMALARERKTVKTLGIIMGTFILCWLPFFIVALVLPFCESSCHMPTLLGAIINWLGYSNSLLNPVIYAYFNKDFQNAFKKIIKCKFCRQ
In words: Radioligand binding, cloned 5-HT1A-serotoninergic receptor in HeLa membranes ([3H]8-OH-DPAT). More on the design: expressed in transfected cells; host or cells: HeLa. The note with it: cloned human 5-HT1A receptor in HeLa membranes, mean Ki, read-out: Affinity for 5-HT1A receptor, cloned receptors (Ki). The procedure: HeLa cells were grown as monolayers in Dulbecco's Modified Eagle medium (DMEM) supplemented with 10% foetal calf serum and gentamicin (100 μg/mL), 5% CO2, at 37° C. The cells were detached from the growth flask at 95% confluence by a cell scraper and were lysed in ice-cold Tris-5-mM and EDTA-5-mM buffer (pH 7.4). The homogenates were centrifuged at 40000×g×20 minutes and the membranes were resuspended in a small volume of ice-cold buffer containing Tris 5 mM and EDTA 5 mM (pH 7.4), and immediately frozen and stored at −70° C. until use.
Non-specific binding was determined in the presence of 10 μM 5-HT. The incubation was stopped by addition of ice-cold Tris buffer and rapid filtration through 0.2% polyethyleneimine-pretreated Schleicher & Schuell filters.
(§1) Data were expressed as mean Ki.

Assay [4] deals with T2, α1a-adrenoceptor (recombinant) (Homo sapiens, UniProt P35348).
T2 construct: expressed in transfected cells
T2 sequence (P35348 1-466): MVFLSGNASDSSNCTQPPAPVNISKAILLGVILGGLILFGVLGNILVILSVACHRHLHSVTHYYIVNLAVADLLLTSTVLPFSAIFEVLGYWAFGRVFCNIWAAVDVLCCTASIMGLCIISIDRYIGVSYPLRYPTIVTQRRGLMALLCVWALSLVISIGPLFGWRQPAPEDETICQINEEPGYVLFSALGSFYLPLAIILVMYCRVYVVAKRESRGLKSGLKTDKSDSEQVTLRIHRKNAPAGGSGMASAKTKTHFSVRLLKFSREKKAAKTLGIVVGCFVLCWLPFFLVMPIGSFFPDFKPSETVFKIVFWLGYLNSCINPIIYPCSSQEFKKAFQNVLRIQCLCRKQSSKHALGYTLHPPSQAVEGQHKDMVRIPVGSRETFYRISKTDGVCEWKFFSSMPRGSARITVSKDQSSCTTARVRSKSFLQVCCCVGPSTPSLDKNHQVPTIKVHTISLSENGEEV
In words: Radioligand binding, cloned α1a-adrenoceptor ([3H]prazosin). The note with it: read-out: Affinity for recombinant α1a-adrenoceptor, cloned receptors (Ki). How it is done: (§2) Determination of affinity for cloned subtypes of α1-adrenoceptor subtypes was performed in membranes from cells transfected by electroporation with DNA expressing the genes encoding each α1-adrenoceptor subtype.
(§3) Non-specific binding was determined in the presence of 10 μM phentolamine.
(§4) Incubation was stopped by addition of ice-cold Tris buffer and rapid filtration through 0.2% polyethyleneimine-pretreated Schleicher & Schuell GF52 filters.
as §1

For assay [5], the target named is T3, α1b-adrenoceptor (recombinant) (Homo sapiens, UniProt P35368).
T3 construct: expressed in transfected cells
T3 sequence (P35368 1-520): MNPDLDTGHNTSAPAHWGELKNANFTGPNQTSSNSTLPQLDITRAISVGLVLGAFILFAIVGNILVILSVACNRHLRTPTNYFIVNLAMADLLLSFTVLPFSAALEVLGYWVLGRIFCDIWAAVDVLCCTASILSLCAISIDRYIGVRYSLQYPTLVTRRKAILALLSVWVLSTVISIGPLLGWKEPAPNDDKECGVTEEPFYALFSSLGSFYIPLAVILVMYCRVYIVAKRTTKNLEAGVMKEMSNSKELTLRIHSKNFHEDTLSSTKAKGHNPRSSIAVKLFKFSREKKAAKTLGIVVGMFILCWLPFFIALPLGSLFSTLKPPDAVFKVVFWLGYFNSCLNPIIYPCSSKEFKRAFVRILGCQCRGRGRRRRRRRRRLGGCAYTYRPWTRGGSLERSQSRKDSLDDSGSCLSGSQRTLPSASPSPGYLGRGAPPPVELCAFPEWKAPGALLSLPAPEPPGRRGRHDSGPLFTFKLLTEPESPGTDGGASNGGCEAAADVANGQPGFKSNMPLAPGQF
In words: Radioligand binding, cloned α1b-adrenoceptor ([3H]prazosin). The conditions noted are these: read-out: Affinity for recombinant α1b-adrenoceptor, cloned receptors (Ki). The procedure: as §2, §3, §4, §1

The test system of assay [6] is prostatic urethral pressure increase induced by noradrenaline. As to the kind of experiment: Inhibition of urethral contractions induced by noradrenaline in anaesthetised dogs after i.v. administration. It counts as in vivo, dog. The conditions noted are these: for UC ID50: active dose inhibiting by 50% the urethral contractions induced by noradrenaline: i.v. administration; for DBP/UC ratio between the active doses: i.v., DBP ED25 / UC ID50. The procedure:
(§5) The experiments were performed according to the method of Imagawa J. et al., J. Pharmacol. Methods 22: 103-111, 1989, with substantial modifications, as follows: adult male beagle dogs, weighing 8-10 kg, were anaesthetised with pentobarbital sodium (30 mg/kg i.v. and 2 mg/kg/h i.v.), intubated and spontaneously ventilated with room air. In order to monitor systemic blood pressure (BP), a polyethylene (PE) catheter was introduced into the aortic arch through the left femoral artery. A collateral of the left femoral vein was cannulated for infusion of anaesthetic, and the right femoral vein was cannulated for administration of compounds. For intra-arterial (i.a.) injection of noradrenaline (NA), a PE catheter was introduced into the lower portion of the abdominal aorta via the right external iliac artery. Through such procedure, NA was selectively distributed to the lower urinary tract. A paramedian vertical suprapubic incision extending from the base of the pelvis to the mid-abdominal region was made and the bladder and prostate were exposed. The bladder was manually emptied with a syringe. Prostatic urethral pressure was monitored with a Mikro-tip catheter (5F) introduced into the bladder via the external urethral meatus, and withdrawn until the pressure transducer was positioned in the prostatic region of the urethra. A ligature was secured between the neck of the bladder and urethra to isolate the response of the latter and to avoid any interaction with the bladder. Another ligature was put around the Mikro-tip catheter at the external meatus, to secure the catheter itself. After a stabilising period following the surgical procedure (30 minutes), in which arterial and prostatic urethral pressure were continuously monitored as basal values, i.a. administration of NA was made at intervals of 20 minutes. The doses of NA chosen were such to produce an increase of at least 100% in urethral pressure. The test compounds were administered i.v. in a cumulative manner with intervals of 15-20 minutes between administrations. I.a. injections of NA were repeated 5 minutes after every dosing of test compound with intervals of about 10 minutes between stimulations. In order to compare the effects of the administered compound, dose/response curves (log dose transformation) were constructed by computing, at the peak effect, the percent decrease in diastolic blood pressure and the percent inhibition of the increase in urethral pressure induced by NA.

Assay [7] concerns the target T4, α1d-adrenoceptor (recombinant) (Homo sapiens, UniProt P25100).
T4 sequence (P25100 1-572): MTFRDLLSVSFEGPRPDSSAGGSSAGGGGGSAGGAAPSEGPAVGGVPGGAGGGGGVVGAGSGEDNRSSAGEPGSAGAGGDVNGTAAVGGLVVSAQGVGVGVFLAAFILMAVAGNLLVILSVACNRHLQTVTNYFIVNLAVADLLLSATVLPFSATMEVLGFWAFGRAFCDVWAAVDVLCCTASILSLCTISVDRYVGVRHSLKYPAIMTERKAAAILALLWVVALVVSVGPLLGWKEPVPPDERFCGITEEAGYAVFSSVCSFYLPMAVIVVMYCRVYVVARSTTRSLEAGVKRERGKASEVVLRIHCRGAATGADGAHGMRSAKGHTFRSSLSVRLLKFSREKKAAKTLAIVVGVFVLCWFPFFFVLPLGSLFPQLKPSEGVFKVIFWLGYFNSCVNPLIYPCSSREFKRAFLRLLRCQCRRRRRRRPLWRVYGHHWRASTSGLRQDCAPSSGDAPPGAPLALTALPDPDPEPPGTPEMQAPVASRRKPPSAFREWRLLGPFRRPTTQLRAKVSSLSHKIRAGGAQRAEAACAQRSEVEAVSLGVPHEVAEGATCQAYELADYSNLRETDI
As to the kind of experiment: Radioligand binding, cloned α1d-adrenoceptor ([3H]prazosin). The note with it: read-out: Affinity for recombinant α1d-adrenoceptor, cloned receptors (Ki). The procedure:
as §2, §3, §4, §1

Assay [8] deals with diastolic blood pressure. In words: Lowering of diastolic blood pressure in anaesthetised dogs after i.v. administration. The assay is classed as in vivo, dog. The procedure: as §5
The subject of assay [9] is α1-adrenergic receptor. The note with it: background statement; cited from earlier work.
In assay [10] the target is T1, 5HT1A-serotoninergic receptor. The note with it: background statement; cited from earlier work.

Where two headings read alike, the source gives them in different places.

Regarding `COc1ccccc1N1CCN(CCCNC(=O)c2cccc3c(=O)c(C)c(-c4ccccc4)oc23)CC1` [Compound A], in assay [1], the “UC ID50: active dose inhibiting by 50% the urethral contractions induced by noradrenaline” value was 0.0024 mg/kg. In addition, the “DBP ED25: active dose lowering diastolic blood pressure by 25%” value in assay [2] is 0.243 mg/kg.

Broadly, the Ki is a measure of affinity in units of concentration, obtained from inhibition or displacement. Take `Cc1c(-c2ccccc2)oc2c(C(=O)NCCCN3CCN(c4ccccc4OCC(F)(F)F)CC3)cccc2c1=O` [Example 15, 8-<3-{4-[2-(2,2,2-Trifluoroethoxy)phenyl]-1-piperazinyl}propylcarbamoyl>-3-methyl-4-oxo-2-phenyl-4H-1-benzopyran]: the Ki in assay [3] came to 0.71 nM; in assay [4], 0.07 nM; in assay [5], 6 nM; in assay [7] it was 3.38 nM. The “UC ID50: active dose inhibiting by 50% the urethral contractions induced by noradrenaline” value in [6] was determined as 0.0049 mg/kg. The “DBP ED25: active dose lowering diastolic blood pressure by 25%” value in assay [8] was found to be 3.001 mg/kg.

On to `COc1ccc(C#N)cc1N1CCN(CCCNC(=O)c2cccc3c(=O)c(C)c(-c4ccccc4)oc23)CC1` [Example 18, 8-{3-[4-(5-Cyano-2-methoxyphenyl)-1-piperazinyl]propylcarbamoyl}-3-methyl-4-oxo-2-phenyl-4H-1-benzopyran], for which the Ki was 677 nM in [3], 4.18 nM in assay [4], 100 nM in assay [5] and 45.4 nM in assay [7]. Moreover, in [6], the “UC ID50: active dose inhibiting by 50% the urethral contractions induced by noradrenaline” value amounted to 0.0341 mg/kg. The “DBP/UC ratio between the active doses” value in assay [6] came to 38.05. Moreover, the “DBP ED25: active dose lowering diastolic blood pressure by 25%” value in [8] stood at 1.2976 mg/kg.

`Cc1c(-c2ccccc2)oc2c(C(=O)NCCCN3CCN(c4cc(Cl)ccc4OCC(F)(F)F)CC3)cccc2c1=O` [Example 22, 8-<3-{4-[5-Chloro-2-(2,2,2-trifluoroethoxy)phenyl]-1-piperazinyl}-propylcarbamoyl>-3-methyl-4-oxo-2-phenyl-4H-1-benzopyran]: the Ki in assay [4] was determined as 0.25 nM; in [5], 1.9 nM; in [7], 3.07 nM. Moreover, the “UC ID50: active dose inhibiting by 50% the urethral contractions induced by noradrenaline” value in [6] was determined as 0.0195 mg/kg. Moreover, the “DBP/UC ratio between the active doses” value in [6] is 64.92. For the same molecule, the “DBP ED25: active dose lowering diastolic blood pressure by 25%” value in assay [8] stood at 1.266 mg/kg.

With `Cc1c(-c2ccccc2)oc2c(C(=O)OCCN3CCCCC3)cccc2c1=O` [Flavoxate, 3-methyl-4-oxo-2-phenyl-8-(2,N-piperidinylethoxycarbonyl)-4H-1-benzopyran], the “Affinity for the α1-adrenergic receptor” value in assay [9] is “practically devoid of affinity”. Besides, the “Affinity for the 5HT1A-serotoninergic receptor” value in assay [10] is on record as “practically devoid of affinity”.

In the case of `CCOc1ccccc1OCCN[C@H](C)Cc1ccc(OC)c(S(N)(=O)=O)c1` [tamsulosin], the “Affinity for the 5HT1A-serotoninergic receptor” value in assay [10] is reported as “comparable affinity”.
